Laboratory results taken from paper PMC4770715, “LIM kinase inhibitors disrupt mitotic microtubule organization and impair tumor cell proliferation” (Oncotarget, 2015).

Columns and labels:
LIMK2 = LIMK2 (Homo sapiens, UniProt P53671); assay: in vitro kinase enzyme assay; type: biochemical
LIMK1 [1] = molecular target: T1, LIMK1 (Homo sapiens, UniProt P53667); assay: in vitro kinase enzyme assay; type: biochemical
LIMK1 [2] = molecular target: T1, LIMK1; assay: biochemical; parameters: KINOMEscan active-site competition binding, percent of control (100 = no competition); details: competition binding, percent control
Description: Kinases inhibited >25% to 50% have yellow circles, 51% to 75% have orange circles, and >76% have red circles. In each case, the size of the circle is proportional to percentage inhibition.

[3] = molecular target: T2, ABL1(T315I)-nonphosphorylated (Homo sapiens, UniProt P00519, T315I); assay: biochemical; parameters: KINOMEscan active-site competition binding, percent of control (100 = no competition); details: competition binding, percent control
T2 construct: nonphosphorylated

AURKB = AURKB (Homo sapiens, UniProt Q96GD4); assay: biochemical; parameters: KINOMEscan active-site competition binding, percent of control (100 = no competition); details: competition binding, percent control
DMPK2 = molecular target: T3, DMPK2 (Homo sapiens, UniProt Q6DT37); assay: biochemical; parameters: KINOMEscan active-site competition binding, percent of control (100 = no competition); details: competition binding, percent control
T3 construct: gene CDC42BPG

EGFR = EGFR (Homo sapiens, UniProt P00533); assay: biochemical; parameters: KINOMEscan active-site competition binding, percent of control (100 = no competition); details: competition binding, percent control
[4] = molecular target: T4, JAK1(JH2domain-pseudokinase) (Homo sapiens, UniProt P23458); assay: biochemical; parameters: KINOMEscan active-site competition binding, percent of control (100 = no competition); details: competition binding, percent control
T4 construct: JH2domain-pseudokinase

LRRK2(G2019S) = LRRK2(G2019S) (Homo sapiens, UniProt Q5S007, G2019S); assay: biochemical; parameters: KINOMEscan active-site competition binding, percent of control (100 = no competition); details: competition binding, percent control
PLK1 = PLK1 (Homo sapiens, UniProt P53350); assay: biochemical; parameters: KINOMEscan active-site competition binding, percent of control (100 = no competition); details: competition binding, percent control
SGK3 = SGK3 (Homo sapiens, UniProt Q96BR1); assay: biochemical; parameters: KINOMEscan active-site competition binding, percent of control (100 = no competition); details: competition binding, percent control
SNRK = SNRK (Homo sapiens, UniProt Q9NRH2); assay: biochemical; parameters: KINOMEscan active-site competition binding, percent of control (100 = no competition); details: competition binding, percent control
SNRK, sequence (Q9NRH2 whole entry): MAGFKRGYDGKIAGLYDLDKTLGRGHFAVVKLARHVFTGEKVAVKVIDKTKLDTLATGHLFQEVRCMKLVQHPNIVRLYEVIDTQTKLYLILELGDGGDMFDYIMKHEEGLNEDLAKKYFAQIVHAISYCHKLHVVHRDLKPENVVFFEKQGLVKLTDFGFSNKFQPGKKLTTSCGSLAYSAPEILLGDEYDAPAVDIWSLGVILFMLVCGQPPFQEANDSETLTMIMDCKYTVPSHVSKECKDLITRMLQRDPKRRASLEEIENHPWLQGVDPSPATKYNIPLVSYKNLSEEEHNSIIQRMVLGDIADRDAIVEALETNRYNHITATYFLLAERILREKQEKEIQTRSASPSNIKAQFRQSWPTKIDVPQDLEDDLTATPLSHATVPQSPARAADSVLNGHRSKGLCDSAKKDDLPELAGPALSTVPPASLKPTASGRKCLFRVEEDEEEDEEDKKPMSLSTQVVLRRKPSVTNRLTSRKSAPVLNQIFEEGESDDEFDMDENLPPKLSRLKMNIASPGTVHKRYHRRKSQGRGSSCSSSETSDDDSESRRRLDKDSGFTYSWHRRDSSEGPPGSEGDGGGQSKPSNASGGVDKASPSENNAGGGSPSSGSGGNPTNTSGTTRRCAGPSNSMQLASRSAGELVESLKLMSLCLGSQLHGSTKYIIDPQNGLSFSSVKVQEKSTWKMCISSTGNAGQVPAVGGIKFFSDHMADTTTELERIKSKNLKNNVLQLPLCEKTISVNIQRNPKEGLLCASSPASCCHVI

T1 sequence (P53667 whole entry): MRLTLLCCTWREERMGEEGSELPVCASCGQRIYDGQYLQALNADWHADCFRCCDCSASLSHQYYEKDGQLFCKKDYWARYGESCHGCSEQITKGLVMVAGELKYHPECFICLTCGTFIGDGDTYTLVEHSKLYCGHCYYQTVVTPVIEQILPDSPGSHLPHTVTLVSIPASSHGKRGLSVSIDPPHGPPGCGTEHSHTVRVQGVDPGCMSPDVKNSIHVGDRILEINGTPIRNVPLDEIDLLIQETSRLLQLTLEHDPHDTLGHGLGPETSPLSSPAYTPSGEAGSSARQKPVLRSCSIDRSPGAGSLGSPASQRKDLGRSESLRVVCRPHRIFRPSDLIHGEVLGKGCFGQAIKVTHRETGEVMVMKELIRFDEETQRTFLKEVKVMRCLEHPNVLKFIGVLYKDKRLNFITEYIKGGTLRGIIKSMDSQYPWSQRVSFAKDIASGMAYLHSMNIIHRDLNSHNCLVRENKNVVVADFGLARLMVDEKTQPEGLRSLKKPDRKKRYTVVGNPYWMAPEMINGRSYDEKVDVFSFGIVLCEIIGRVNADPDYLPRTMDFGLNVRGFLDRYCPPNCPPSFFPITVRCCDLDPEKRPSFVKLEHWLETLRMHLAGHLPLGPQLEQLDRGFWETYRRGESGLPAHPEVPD
EGFR, sequence (P00533 whole entry): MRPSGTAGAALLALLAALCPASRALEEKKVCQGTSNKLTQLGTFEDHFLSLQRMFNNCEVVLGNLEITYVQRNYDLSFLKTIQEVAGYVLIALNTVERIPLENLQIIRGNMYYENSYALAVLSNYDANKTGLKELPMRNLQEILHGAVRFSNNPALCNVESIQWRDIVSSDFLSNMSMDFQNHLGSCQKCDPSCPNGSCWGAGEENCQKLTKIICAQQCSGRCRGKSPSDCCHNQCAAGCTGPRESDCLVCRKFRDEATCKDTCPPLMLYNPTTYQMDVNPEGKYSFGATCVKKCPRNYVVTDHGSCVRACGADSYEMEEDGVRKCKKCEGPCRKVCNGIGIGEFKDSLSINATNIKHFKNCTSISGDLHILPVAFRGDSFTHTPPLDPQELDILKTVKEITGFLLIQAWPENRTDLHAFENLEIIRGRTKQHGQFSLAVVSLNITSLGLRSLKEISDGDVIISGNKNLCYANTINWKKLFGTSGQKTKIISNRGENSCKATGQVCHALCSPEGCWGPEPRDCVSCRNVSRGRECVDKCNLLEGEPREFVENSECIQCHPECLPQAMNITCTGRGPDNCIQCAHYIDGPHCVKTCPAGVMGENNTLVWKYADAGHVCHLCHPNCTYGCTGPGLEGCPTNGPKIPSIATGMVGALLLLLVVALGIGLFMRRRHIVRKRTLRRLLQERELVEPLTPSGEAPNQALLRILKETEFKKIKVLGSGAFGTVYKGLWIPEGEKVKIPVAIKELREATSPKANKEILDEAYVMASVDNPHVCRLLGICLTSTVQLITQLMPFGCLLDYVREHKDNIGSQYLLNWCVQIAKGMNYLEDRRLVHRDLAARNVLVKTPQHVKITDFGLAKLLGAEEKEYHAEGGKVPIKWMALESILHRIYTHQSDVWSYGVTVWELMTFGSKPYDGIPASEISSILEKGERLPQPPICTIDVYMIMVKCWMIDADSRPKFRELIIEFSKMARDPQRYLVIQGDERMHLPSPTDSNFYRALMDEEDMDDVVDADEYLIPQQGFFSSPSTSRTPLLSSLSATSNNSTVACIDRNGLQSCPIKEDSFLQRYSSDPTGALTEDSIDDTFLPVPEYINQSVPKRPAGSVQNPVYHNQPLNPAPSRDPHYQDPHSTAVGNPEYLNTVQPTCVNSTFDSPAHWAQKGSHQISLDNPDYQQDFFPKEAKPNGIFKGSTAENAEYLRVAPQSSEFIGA
LRRK2(G2019S), sequence (Q5S007 whole entry G2019S): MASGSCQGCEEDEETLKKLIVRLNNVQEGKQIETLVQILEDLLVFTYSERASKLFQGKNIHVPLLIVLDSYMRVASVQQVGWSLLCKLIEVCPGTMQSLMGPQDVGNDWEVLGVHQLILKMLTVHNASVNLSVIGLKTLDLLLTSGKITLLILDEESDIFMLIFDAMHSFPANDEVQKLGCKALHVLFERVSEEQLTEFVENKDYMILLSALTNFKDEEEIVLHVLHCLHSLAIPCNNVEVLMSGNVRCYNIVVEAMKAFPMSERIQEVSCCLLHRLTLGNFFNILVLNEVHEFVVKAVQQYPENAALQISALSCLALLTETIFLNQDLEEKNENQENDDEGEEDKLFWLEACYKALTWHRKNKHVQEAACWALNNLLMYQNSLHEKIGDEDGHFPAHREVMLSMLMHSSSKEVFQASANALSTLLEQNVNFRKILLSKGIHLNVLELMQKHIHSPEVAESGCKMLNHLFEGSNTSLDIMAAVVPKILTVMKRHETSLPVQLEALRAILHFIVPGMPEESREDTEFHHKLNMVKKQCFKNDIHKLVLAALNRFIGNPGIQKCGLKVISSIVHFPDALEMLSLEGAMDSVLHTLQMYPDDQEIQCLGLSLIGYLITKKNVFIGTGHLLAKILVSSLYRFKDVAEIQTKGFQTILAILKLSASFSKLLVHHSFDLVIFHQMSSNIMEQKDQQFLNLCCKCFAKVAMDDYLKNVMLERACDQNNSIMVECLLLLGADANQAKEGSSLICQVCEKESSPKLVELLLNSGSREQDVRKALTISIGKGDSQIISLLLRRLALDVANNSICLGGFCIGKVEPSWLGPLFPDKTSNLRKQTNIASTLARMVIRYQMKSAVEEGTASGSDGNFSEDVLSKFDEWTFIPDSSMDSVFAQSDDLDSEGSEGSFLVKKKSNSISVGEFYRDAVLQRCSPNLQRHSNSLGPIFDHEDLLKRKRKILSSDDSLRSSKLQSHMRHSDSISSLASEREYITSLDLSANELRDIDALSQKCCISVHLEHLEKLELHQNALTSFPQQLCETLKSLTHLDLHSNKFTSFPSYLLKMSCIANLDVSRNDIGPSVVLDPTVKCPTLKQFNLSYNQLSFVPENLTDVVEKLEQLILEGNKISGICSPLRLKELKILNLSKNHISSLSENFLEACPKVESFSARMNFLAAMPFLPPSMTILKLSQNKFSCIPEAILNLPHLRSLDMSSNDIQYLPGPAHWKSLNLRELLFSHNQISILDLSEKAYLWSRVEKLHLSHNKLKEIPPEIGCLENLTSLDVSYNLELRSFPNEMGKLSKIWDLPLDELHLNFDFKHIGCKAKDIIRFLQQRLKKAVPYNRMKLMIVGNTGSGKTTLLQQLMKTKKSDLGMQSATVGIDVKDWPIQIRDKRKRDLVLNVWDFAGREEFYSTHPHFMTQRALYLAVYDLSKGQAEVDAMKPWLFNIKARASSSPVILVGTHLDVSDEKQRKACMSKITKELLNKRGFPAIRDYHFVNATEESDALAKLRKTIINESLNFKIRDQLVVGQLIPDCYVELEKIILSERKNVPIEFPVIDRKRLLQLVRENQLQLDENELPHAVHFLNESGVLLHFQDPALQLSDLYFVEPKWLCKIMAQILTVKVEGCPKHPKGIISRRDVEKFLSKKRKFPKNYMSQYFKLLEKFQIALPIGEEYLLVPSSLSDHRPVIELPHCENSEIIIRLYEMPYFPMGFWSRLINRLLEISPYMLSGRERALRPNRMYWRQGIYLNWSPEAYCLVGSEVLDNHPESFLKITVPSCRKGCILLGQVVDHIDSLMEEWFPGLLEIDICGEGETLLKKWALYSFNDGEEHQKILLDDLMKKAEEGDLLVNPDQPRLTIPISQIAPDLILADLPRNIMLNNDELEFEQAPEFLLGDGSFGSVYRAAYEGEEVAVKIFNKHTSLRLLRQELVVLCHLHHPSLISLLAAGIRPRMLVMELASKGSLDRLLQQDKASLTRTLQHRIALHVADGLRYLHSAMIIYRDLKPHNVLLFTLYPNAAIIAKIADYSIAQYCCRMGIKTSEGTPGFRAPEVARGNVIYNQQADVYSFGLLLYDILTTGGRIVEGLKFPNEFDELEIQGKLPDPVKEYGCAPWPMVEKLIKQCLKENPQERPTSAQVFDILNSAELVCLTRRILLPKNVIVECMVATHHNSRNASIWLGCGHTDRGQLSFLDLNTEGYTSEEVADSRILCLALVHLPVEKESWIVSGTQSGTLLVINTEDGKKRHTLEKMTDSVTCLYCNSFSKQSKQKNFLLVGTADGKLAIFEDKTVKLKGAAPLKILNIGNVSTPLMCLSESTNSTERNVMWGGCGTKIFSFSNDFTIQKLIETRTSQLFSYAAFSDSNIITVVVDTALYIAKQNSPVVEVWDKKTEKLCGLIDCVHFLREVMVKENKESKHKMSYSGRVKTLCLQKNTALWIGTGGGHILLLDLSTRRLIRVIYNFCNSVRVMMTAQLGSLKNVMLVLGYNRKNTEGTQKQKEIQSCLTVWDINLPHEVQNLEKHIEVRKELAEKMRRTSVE

SMILES: COc1ccc(-c2cnccc2-c2cnc(NC(=O)C(C)C)s2)c(C(F)(F)F)c1 [CRT0105446, N-{5-[3-(4-Methoxy-2-trifluoromethyl-phenyl)-pyridin-4-yl]-hiazol-2-yl}-isobutyramide]
- IC50 (LIMK2): 32 nM
- IC50 (LIMK1 [1]): 8 nM
- remaining binding at 10 µM (LIMK1 [2]): 2%
- remaining binding at 10 µM [3]: 100%
- remaining binding at 10 µM (AURKB): 80%
- remaining binding at 10 µM (DMPK2): 93%
- remaining binding at 10 µM (EGFR): 100%
- remaining binding at 10 µM [4]: 92%
- remaining binding at 10 µM (LRRK2(G2019S)): 86%
- remaining binding at 10 µM (PLK1): 100%
- remaining binding at 10 µM (SGK3): 95%
- remaining binding at 10 µM (SNRK): 81%

SMILES: Cc1ccc(-c2cnccc2-c2cnc(Nc3ccc(O)cc3)s2)c(Cl)c1 [CRT0105950, 4-{5-[3-(2-Chloro-4-methyl-phenyl)-pyridin-4-yl]-thiazol-2-ylamino}-phenol]
- IC50 (LIMK2): 1 nM
- remaining binding at 10 µM [3]: 82%
- remaining binding at 10 µM (AURKB): 0.15%
- remaining binding at 10 µM (DMPK2): 71%
- remaining binding at 10 µM (EGFR): 53%
- remaining binding at 10 µM [4]: 74%
- remaining binding at 10 µM (LRRK2(G2019S)): 56%
- remaining binding at 10 µM (PLK1): 100%
- remaining binding at 10 µM (SGK3): 72%
- remaining binding at 10 µM (SNRK): 100%
